{"source": "patent US9326972B2", "about": "“Use of phenylmethimazoles, methimazole derivatives, and tautomeric cyclic thiones for the treatment of autoimmune/inflammatory diseases associated with toll-like receptor overexpression” (Ohio University, priority 2004, dated 2016)", "key": {"NF-κB": {"system": "NF-κB", "assay": "NF-κB Luc reporter gene in FRTL-5 thyrocytes", "type": "cell-based, rat", "conditions": "for NF-κB Luc Relative Luciferase Activity % of Control (±15%), +C10: 6 hours", "procedure": "Poly (I:C) (the dsRNA ligand commonly used as a test compound) activates the TLR3 mediated NF-κ β/Map kinase signal pathway in FRTL-5 thyrocytes. FRTL-5 cells were transiently transfected with 100 ng of luciferase reporter pNF-κB Luc and 2 ng of internal control phRL-Tk. After 36 h, cells were incubated with 100 μg/ml poly (I:C) or endotoxin-free E. coli DNA for 6 h. Measurements were made with the Dual Luciferase Assay System (Promega). Poly (I:C) increased TLR3 mediated NF-κB mediated luciferase activity (gene expression) 6 fold; dsDNA had no effect. Further support came from electrophoretic mobility shift analyses (EMSA). When FRTL-5 thyrocytes were incubated with 100 μg/ml poly (I:C), IL-1β, TNF-α or TPA, cells lysed after 1 h, and nuclear translocation of NF-κB measured. The poly (I:C) induced p50/p65 complex formation as measured by the presence of a specific new protein/DNA complex and its inhibition by anti-p50 and p65 antibodies, but not by anti-p52, c-rel and Rel B antibodies; the complex was also supershifted by anti-p50. […] Additionally, when FRTL-5 cells were co-transfected with pCMV-BD-Elk 1 and pFR-luc, then incubated with 100 μg/ml poly (I:C) or IL-1β for 6 hrs, ELK1 transactivation was increased 2-fold by both Poly (I:C) and IL-1β when measured with the Dual Luciferase Assay System (Promega). NF-κB/MAP Kinase signals evoked by TLR3 binding dsRNA are only one portion of TLR3 functional expression.\nCells were co-transfected with ISRE-Luc and pRLTk-Int and then treated without (none) or with Poly I:C (100 μg/ml), LPS (100 ng/ml), IL-1β (10 ng/ml) TNF-α (25 ng/ml), IFN-β (100 U/ml) or IFN-γ (1000 U/ml) in the presence of DMSO (−) or C10 for 6 hours. Data were obtained using the Dual Luciferase Assay system. The effect on the ISRE element is not duplicated by an NF-κB reporter plasmid despite the similarity of the two elements: ([…])5 (SEQ ID NO:3) vs. ([…])5 (SEQ ID NO:4), respectively. Data are representative of multiple experiments.\nPlasmids for Reporter Gene Assays. Human IRF-3 was amplified from human cDNA and cloned into pCR 2.1 by the TOPO/TA (Invitrogen, Carlsbad, Calif.) cloning method, and then sequenced. IRF-3 was then excised by EcoRI digestion and subcloned into pCMV-BD (Stratagene, La Jolla, Calif.) for use in transactivation assays. To construct IFN-β-luc the human IFN-β promoter sequence was amplified from human genomic DNA (Clontech, Palo Alto, Calif.)) using Ex Taq™ Polymerase (Takara, Madison, Wis.). The PCR fragment contained human IFN-β promoter sequence from −125 to +34 relative to the transcription start site (+1) and incorporated KpnI and XhoI restriction sites at the 5′ and 3′ ends, respectively. The primers were as follows: hIFN-β (−125) KpnI (5′-[…]-3′) (SEQ ID NO:9) and hIFN-β (+34) XhoI (5′-[…]-3′). (SEQ ID NO: 10) The fragment was digested with KpnI and XhoI then ligated into a similarly digested pGL3 Basic (Promega, Madison, Wis.) vector. The human MyD88 wild and dominant negative expression vectors were kindly donated by Dr. P. E. Auron. pFR-luc (5×Gal4 DNA binding domains and minimal TATA box), ISRE-Luc, NF-κB-luc and the Elk1 trans-Reporting System were purchased from Stratagene. pRL TK-Int was purchased from Promega.\nTransient Expression Analysis. A DEAE procedure was used to transfect promoter-luciferase gene constructs and expression plasmids into FRTL-5 cells. Briefly, FRTL-5 cells were grown in 24-well plates to about 70% confluence, washed with 0.5 ml of serum-free culture medium (6H0 medium), then exposed to 125 μl of premade plasmid-DEAE mixture per well for 15 min at room temperature. The plasmid-DEAE mixture was prepared by incubating 100 ng of plasmid DNA, unless otherwise noted in individual experiments, with 3.125 μl of DEAE-Dextran (10 mg/ml) (Promega, Madison Wis.). FRTL-5 cells were incubated with this mixture for 2 hr at 37° C. in a CO2 incubator, before 2 ml of 6H5 medium was added. […]"}, "C57BL/6J mice": {"system": "C57BL/6J mice", "assay": "LPS-induced endotoxic shock in C57BL/6J mice: survival and signs of shock", "type": "in vivo, mouse", "conditions": "for Survival % of Control: Toxic Shock model, 10 animals, 1.5 days"}, "HAEC": {"system": "HAEC", "assay": "IFN-β-induced IRF-1 and Stat1 phosphorylation in human aortic endothelial cells (immunoblot)", "type": "cell-based"}, "[1]": {"assay": "Solubility and storage stability of C10 solutions", "type": "physicochemical", "description": "In the studies described in Table 5, C10 was formulated in DMSO and administered i.p. DMSO was used due to the low solubility of C10 in aqueous environments but can have well documented independent effects (M. S. Ivanovic, et al., Toxicology Letters, 147:153-159 (2004))]. […] To circumvent these issues, we used a proprietary cyclodextrin (CD) excipient that is approved by the FDA for use in humans to make an aqueous formulation of C10. […] In a test using LPS-induced toxic shock, oral excipient-solubilized C10, stored in diluted form at 4° C. for 8 weeks, was as effective in preventing death as was freshly made C10 i.p. in DMSO at the same 1 mg/kg dose."}, "[2]": {"conditions": "LPS 20 mg/kg i/p, drug i/p 30 min before LPS, 8 mice per group"}}, "data": [{"smiles": "Cn1c(-c2ccccc2)cnc1S", "note": "[Compound C10, 5-Phenylmethimazole]", "values": [{"measurement": "NF-κB Luc Relative Luciferase Activity % of Control (±15%), +C10", "setting": "NF-κB; FRTL-5, Ligand IFN-β 100 U/ml", "result": "150 % of Control"}, {"measurement": "NF-κB Luc Relative Luciferase Activity % of Control (±15%), +C10", "setting": "NF-κB; FRTL-5, Ligand IFN-γ 1000 U/ml", "result": "180 % of Control"}, {"measurement": "NF-κB Luc Relative Luciferase Activity % of Control (±15%), +C10", "setting": "NF-κB; FRTL-5, Ligand IL-1β 10 ng/ml", "result": "350 % of Control"}, {"measurement": "NF-κB Luc Relative Luciferase Activity % of Control (±15%), +C10", "setting": "NF-κB; FRTL-5, Ligand LPS 100 ng/ml", "result": "250 % of Control"}, {"measurement": "NF-κB Luc Relative Luciferase Activity % of Control (±15%), +C10", "setting": "NF-κB; FRTL-5, Ligand None", "result": "100 % of Control"}, {"measurement": "NF-κB Luc Relative Luciferase Activity % of Control (±15%), +C10", "setting": "NF-κB; FRTL-5, Ligand Poly (I:C) 100 μg/ml", "result": "300 % of Control"}, {"measurement": "NF-κB Luc Relative Luciferase Activity % of Control (±15%), +C10", "setting": "NF-κB; FRTL-5, Ligand TNF-α 25 ng/ml", "result": "225 % of Control"}, {"measurement": "effect on Poly (I:C)-increased NF-κB-luciferase activity", "setting": "NF-κB; FRTL-5, 0.5 mM C10 or 5 mM MMI", "result": "minimal effect"}, {"measurement": "survival / protection from death after LPS injection", "setting": "C57BL/6J mice; C10 1 mg/kg i/p 30 minutes before LPS 20 mg/kg, 36 hours", "result": 100, "unit": "%"}, {"measurement": "survival (cases)", "setting": "C57BL/6J mice; C10 0.1 to 1 mg/kg administered 30 min to 12 hours after lethal LPS injection", "result": 100, "unit": "%"}, {"measurement": "duration of survival observed", "setting": "C57BL/6J mice; C10-treated LPS mice, as long as observed", "result": "≥ 4", "unit": "weeks"}, {"measurement": "survival", "setting": "C57BL/6J mice; C10 daily doses of 0.1 or 1 mg/kg, 12 hours after challenge with LPS", "result": 100, "unit": "%"}, {"measurement": "Number of surviving mice, 6 hrs", "setting": "C57BL/6J mice; [2]", "result": 8}, {"measurement": "Number of surviving mice, 12 hrs", "setting": "C57BL/6J mice; [2]", "result": 8}, {"measurement": "Signs of shock at 12 hours, % of Animals", "setting": "C57BL/6J mice; LPS-challenged mice", "result": "100 % of Animals"}, {"measurement": "prevention of death vs freshly made C10 i.p. in DMSO", "setting": "C57BL/6J mice; LPS-induced toxic shock, oral excipient-solubilized C10 stored diluted at 4° C. for 8 weeks, 1 mg/kg", "result": "as effective"}, {"measurement": "Survival % of Control", "setting": "C57BL/6J mice; 1 mg/kg, Ip diluted & stored in DMSO 1 wk", "result": 0, "unit": "%"}, {"measurement": "Survival % of Control", "setting": "C57BL/6J mice; 1 mg/kg, Ip freshly diluted in DMSO", "result": 100, "unit": "%"}, {"measurement": "Survival % of Control", "setting": "C57BL/6J mice; 1 mg/kg, Oral diluted & stored in excipient 6 wks", "result": 100, "unit": "%"}, {"measurement": "Survival % of Control", "setting": "C57BL/6J mice; 1 mg/kg, Oral stored in excipient 1 week", "result": 100, "unit": "%"}, {"measurement": "Stat1 serine phosphorylation at residue 727", "setting": "HAEC; 100 U/mL hIFN-β 2 hours, 1 mM C10", "result": "decreased"}, {"measurement": "IFN-β induced Stat1 phosphorylation (Y701)", "setting": "HAEC; 2 hours, C10 1 mM", "result": "decrease"}, {"measurement": "IFN-β induction of IRF-1 protein", "setting": "HAEC; 2 hours, C10 1 mM", "result": "strongly decreased"}, {"measurement": "solubility in aqueous environments", "setting": "[1]", "result": "low"}, {"measurement": "stability of C10 solubilized in DMSO and diluted to a working concentration", "setting": "[1]", "result": "not stable for prolonged periods of time"}, {"measurement": "activity of C10 diluted in DMSO and stored in diluted form", "setting": "[1]; stored at either 4° C. or −70° C., in vitro or in vivo", "result": "inactive"}]}]}
